Data: patent US11389413B2, “Methods of preparing compositions containing thymoquinone” (Jina Pharmaceuticals, Inc., priority 2017, dated 2022)

Columns and labels:
[1] = test system: streptozotocin (STZ) induced diabetic mice; test: Hypoglycemic activity in streptozotocin-induced diabetic mice (blood glucose, water intake); format: in vivo, Male ICR (CD-1) mice
Procedure: Induction of Experimental Diabetes in Mice: Male ICR (CD-1) mice (8-9 weeks of age) were fasted for 6 hrs. before streptozotocin (STZ) administration. Fresh STZ solution at 15 mg/mL was prepared by dissolving powder STZ into 1 mM citrate buffer (pH 4.5). Mice received i.p. STZ solution of 150 mg/kg. Fasting blood glucose level was measured from tail vein blood. Mice with blood glucose levels of 250 mg/dL or higher were considered to be diabetic. Blood samples with “HI” (>600 mg/dL) reading were diluted with same amount of normal saline before measuring again.
A total of 20 diabetic mice were randomized based on the blood glucose levels into two study groups, group A: Metformin (Met)-treated, and group B: Thymoquinone/Metformin (TQ/Met)-treated groups.
There were 10 animals in each group. Mice in group A received oral administration of Met at a dose of 200 mg/kg every day. Mice in group B received oral administration of Met+TQ (200 mg/kg+50 mg/kg) every day using a 20-Ga stainless feeding needle. Fasting blood glucose level was measured weekly.
Water intake was also estimated by weighing each water bottle before and after a period of 24 hrs. The volume of water consumed was estimated from the weight of water consumed. The volume of water consumed by each cage was normalized with body weight and presented as mL/30 g BW over 24 hrs.

[2] = test system: Lipopolysaccaride/D-Galactosamine (LPS/GaIN) induced acute liver failure; test: LPS/GalN induced acute liver failure, survival; format: in vivo, Male C57BL6 mice; settings: TQ 200 mg/kg oral gavage 30 min after LPS/GalN injection; all control mice died in over 7 hrs
Procedure: A total of 13 male C57BL6 mice (5-6 weeks of age) were injected intraperitoneally with D-galactosamine (GaIN, Carbosynth) (800 mg/kg) and lipopolysaccharide (LPS from E coli 0127:B8, Sigma-Aldrich) (10 μg/kg) dissolved in normal saline. 30 min after LPS/GalN injection, 6 mice in the control group received purified water (20 mL/kg) and 7 mice received a TQ at a dose of 200 mg/kg, via oral gavage. Survival was monitored for 48 hrs. All mice in the control group died in over 7 hrs. period following the injection of LPS/GalN, while 4 out of 7 mice treated with TQ survived up to 48 hrs. (see FIG. 2).

[3] = cited from earlier work
[4] = cited from earlier work; remark: listed apart in the source

Row | Structure (SMILES) | Blood Glucose Level, Pre-Treat ([1]; fasting blood glucose, STZ diabetic mice, before treatment, Mean ± SD, n = 10) | Blood Glucose Level, 1-Week Treat ([1]; fasting blood glucose, oral daily dosing, 1 week, Mean ± SD, n = 10) | Blood Glucose Level, 2-Week Treat ([1]; fasting blood glucose, oral daily dosing, 2 weeks, Mean ± SD, n = 10) | Blood Glucose Level, 3-Week Treat ([1]; fasting blood glucose, oral daily dosing, 3 weeks, Mean ± SD, n = 10) | decrease in blood glucose level ([1]; over 3-week period, oral daily, Met 200 mg/kg, Met+TQ 200 mg/kg+50 mg/kg) | mice surviving up to 48 hrs [2] | solubility in aqueous buffers [3] | stability in aqueous solutions [4]
1 | CN(C)C(=N)N=C(N)N [Met, Metformin] | 443 ± 102 mg/dL | 433 ± 115 mg/dL | 290 ± 84 mg/dL | 299 ± 96 mg/dL | 32.5% | – | – | –
2 | CC1=CC(=O)C(C(C)C)=CC1=O [TQ, 2-Isopropyl-5-methyl-1,4-benzoquinone] | – | – | – | – | – | 4 out of 7 | approx. 500 μg/mL | highly unstable
